The text below walks through data of the METLIN SMRT retention time set (Domingo-Almenara et al. 2019).

This data set in a line: gradient 5% acetonitrile 3 min, to 50% in 2 min, to 85% in 15 min, held 3 min, 100 µL/min. The conditions noted are these: column: Zorbax Extend-C18 2.1 x 50 mm; eluents: water / acetonitrile, 0.1% formic acid. The method, boiled down:
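Pure standards were run in mixtures of ~100 molecules by HPLC coupled to a quadrupole time-of-flight mass spectrometer. The column was a Zorbax Extend-C18 (2.1 × 50 mm, 1.8 μm) at 100 μL/min, with water and acetonitrile each containing 0.1% formic acid, in positive and negative ionization mode. Dead and dwell volumes were 40 μL and 900 μL. Retention time was taken from computationally picked adduct peaks, each manually inspected, with data collected over 3 months.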
Turning to `N#Cc1cccc(C(=O)NC2CCN(c3cc(-c4cccs4)[nH]n3)C2)c1` (stereo not drawn), the RP-LC retention time worked out at 701 s.

Molecule `Cn1cc(-c2cc3n(n2)CCC(=O)N3CC(=O)NCc2cccnc2)c2ccccc21` yielded an RP-LC retention time of 566 s.

Molecule `COc1ccccc1CNS(=O)(=O)c1cccc(-c2nc(-c3ccccc3)no2)c1` came in with an RP-LC retention time of 1150 s.

`Cn1cc(C(=O)O)c(S(=O)(=O)N2CCOCC2)n1` showed an RP-LC retention time of 576 s.

In the case of `CCCN1CCCCc2cc(C(=O)NCC(N)=O)sc21`, the RP-LC retention time was determined as 686 s.

The molecule `Cc1nn(C)c2nc(OCC(=O)N3CCCCCC3)cc(C(F)(F)F)c12` registered an RP-LC retention time of 958 s.

Consider `CNC(=O)C1(C)CC(c2ccccc2)=NO1` (stereo not drawn), for which the RP-LC retention time amounted to 693 s.

In turn, `CCOCCOC(=O)c1cn(-c2ccc(OC)cc2)c(=O)c2ccccc12` had an RP-LC retention time of 963 s.

`CCOC(=O)c1c(S(=O)(=O)NCc2ccccc2F)n[nH]c1C` came in with an RP-LC retention time of 728 s.

The molecule `CCCCn1c(=O)c2ccccc2n(Cc2nc(-c3ccccc3OCC)no2)c1=O` came in with an RP-LC retention time of 1130 s.

`O=C(Cn1nc2c(N3CCCCCC3)nccn2c1=O)Nc1ccc(F)c(Cl)c1` returned an RP-LC retention time of 786 s.

Molecule `O=C(CCn1cnc2cc(-c3noc(-c4ccc(F)cc4)n3)ccc21)N1CCOCC1` had an RP-LC retention time of 706 s.

As for `O=C(NCCn1nc(-n2cccn2)ccc1=O)c1ccc2nsnc2c1`, the RP-LC retention time was 621 s.

`Cc1ccc(-c2csc(-n3nc(C)c(CC(=O)Nc4ccc(C)cc4C)c3C)n2)cc1`: the RP-LC retention time was 1260 s.

For `CC(C)c1ccc(S(=O)(=O)N2CCC(C(=O)NCc3csc(-c4ccccc4)n3)CC2)cc1`, the RP-LC retention time came out at 1070 s.

The molecule `COc1ccc2c(=O)c(Oc3ccccc3F)c(C)oc2c1` displayed an RP-LC retention time of 888 s.

`Cc1ccc(Nc2c(-c3ccc(N(C)C)cc3)nc3cnccn23)cc1Cl` returned an RP-LC retention time of 958 s.

In the case of `Cc1ccccc1-c1nnc(CSc2nnc(NC(=O)C3CC3)s2)o1`, the RP-LC retention time stood at 822 s.

Turning to `COc1cccc(NC(=O)NCCc2cn(C)c3ncccc23)c1`, the RP-LC retention time came to 662 s.

Take `CN1CCN(CCCNC(=O)c2nccnc2NC(=O)c2ccccc2)CC1`: the RP-LC retention time stood at 557 s.

Consider `COc1cccc(S(=O)(=O)N2CCC(c3noc(-c4ccccc4C)n3)CC2)c1`, for which the RP-LC retention time was found to be 1140 s.

Regarding `CC(C)c1ccc(S(=O)(=O)N2CCCC2c2nc(-c3cccc(F)c3)no2)cc1` (stereo not drawn), the RP-LC retention time is 1270 s.

Turning to `CCOc1ccc(-c2noc(Cn3c(=O)n(C(C)CC)c(=O)c4ccccc43)n2)cc1OC` (stereo not drawn), the RP-LC retention time came to 1140 s.

Consider `CCn1nccc1-c1cccc(-c2noc(CNC(=O)c3ccccc3)n2)c1`, for which the RP-LC retention time was 874 s.

In the case of `CC(C)C(=O)Nc1ccc(C2(C(=O)N3CCN(C(C)C)CC3)CCCCC2)cc1`, the RP-LC retention time was 652 s.

`Cn1c(=O)oc2cc(-c3noc(-c4ccccc4Br)n3)ccc21` registered an RP-LC retention time of 1070 s.

In turn, `COc1cc2c(cc1NC(=O)c1ccco1)n(C)c(=O)n2C` had an RP-LC retention time of 688 s.

As to `CC1CCN(S(=O)(=O)c2ccc3nn(Cc4ccccc4Cl)c(=O)n3c2)CC1`, the RP-LC retention time worked out at 1040 s.

In the case of `O=C(Cn1c(=O)c2cc(C3CC3)nn2c2ncccc21)N1CCCc2ccccc21`, the RP-LC retention time was 832 s.

In the case of `Cc1ccc(N2CCN(Cc3nc(-c4ccc(N5CCCC(C)C5)nc4)no3)CC2)cc1` (stereo not drawn), the RP-LC retention time came out at 1060 s.

As for `Cc1nnc2ccc(N3CCC(C(=O)N4CCN(c5cccc(Cl)c5)CC4)CC3)nn12`, the RP-LC retention time came to 860 s.

Turning to `CCOC(=O)c1[nH]c(C)c(C(=O)C(C)N(C(=O)c2cccc(F)c2)C2CC2)c1C` (stereo not drawn), the RP-LC retention time came to 988 s.

Regarding `CC(C(=O)N1CC(n2cc(COCC3CC3)nn2)C1)c1ccccc1` (stereo not drawn), the RP-LC retention time stood at 701 s.

The molecule `COc1ccc2c(=O)c(Oc3ccc(C(=O)Nc4nccs4)cc3)c(C)oc2c1` registered an RP-LC retention time of 788 s.

The molecule `Cc1cc(=O)n(CC(=O)Nc2ccc3c(c2)OCCO3)c(N2CCOCC2)n1` returned an RP-LC retention time of 634 s.

For the molecule `CC(C)c1cccc(NC(=O)Cn2c(=O)cc(-c3nc(C4CC4)no3)c3ccccc32)c1`, the RP-LC retention time is 1080 s.

Turning to `O=C(C1CCN(S(=O)(=O)c2cc(-c3noc(C4CCC4)n3)cs2)CC1)N1CCCC1`, the RP-LC retention time amounted to 911 s.

As for `COc1cc([C@@H]2c3cc4c(cc3[C@H](O)[C@@H](CO)[C@@H]2C(=O)N2CCN(c3ccc(F)cc3)CC2)OCO4)cc(OC)c1OC`, the RP-LC retention time was determined as 720 s.

`CC(C)NC(=O)c1ccc(-c2nc3cc(NS(=O)(=O)Cc4ccccc4F)ccc3n2C)cc1` displayed an RP-LC retention time of 677 s.

`Cc1ccccc1NC(=O)N1CCC(c2nc(C(=O)N3CCCC3)c(C)o2)CC1` had an RP-LC retention time of 732 s.

`Cc1ccc(C(=O)Nc2ccc3c(c2)CCC(=O)N3)s1`: the RP-LC retention time came out at 680 s.

In turn, `Cc1ccc(CNC(=O)Cn2c(C)cc(-c3nnc(-c4ccc(F)cc4)o3)c2C)o1` showed an RP-LC retention time of 919 s.

`O=C(NC1CCCCCC1)C1CCCN(C(=O)c2cc(-c3ccncc3)n[nH]2)C1` (stereo not drawn): the RP-LC retention time was 627 s.

`O=C(NCCN1CCOCC1)c1ccc(-c2c(-c3ccc(F)cc3)ncn2C2CCCCC2)o1` showed an RP-LC retention time of 605 s.

Consider `C[C@H]1C/C=C/[C@H]2[C@@H]3O[C@]3(C)[C@@H](C)[C@H]3[C@H](Cc4ccccc4)NC(=O)[C@]32OC(=O)O/C=C/[C@](C)(O)C1=O`, for which the RP-LC retention time amounted to 870 s.

For the molecule `COc1ccc(-c2nc3sc(C(=O)N4CCOCC4)c(C)n3c2NC(C)(C)C)cc1`, the RP-LC retention time stood at 763 s.

`CCCNC(=O)N1CCCCC1c1nc(C2CC2)n[nH]1` (stereo not drawn): the RP-LC retention time stood at 610 s.

Regarding `CC(NC(=O)c1cccc2c1CCN2C(=O)Nc1ccccc1)c1cccnc1` (stereo not drawn), the RP-LC retention time was 643 s.

Consider `CCc1cc(=O)n(CC(=O)Nc2ccc3c(c2)OCCO3)c(N2CCOCC2)n1`, for which the RP-LC retention time is 681 s.

For `CC(C)CC(=O)Nc1cnc(N2CCCCCC2)nc1`, the RP-LC retention time was 823 s.

Molecule `COc1ccc(C(=O)N2CCC(COc3ccc(C(=O)NC4CC4)cc3)CC2)c(C)c1` showed an RP-LC retention time of 808 s.

With `Cc1nc2c(n1C)CN(C(=O)Cc1c(F)cccc1Cl)CC2`, the RP-LC retention time is 594 s.

Consider `CC1CCCN(CCCNC(=O)c2cc(=O)n3c(nc4ccccc43)s2)C1` (stereo not drawn), for which the RP-LC retention time is 638 s.

With `CCc1ccccc1NC(=O)Cn1ccc2sccc2c1=O`, the RP-LC retention time was found to be 742 s.

Regarding `COCCN1C(=O)c2cccn2CC1CNC(=O)Nc1ccc2c(c1)OCCO2` (stereo not drawn), the RP-LC retention time came out at 663 s.

`CCCN1C(=O)C2(NCCc3c2[nH]c2ccc(OC)cc32)c2cc(Br)ccc21` (stereo not drawn): the RP-LC retention time was 729 s.

For the molecule `COCCN1C(=O)c2ccccc2C(C(=O)Nc2cccc(C)n2)C12CCCCC2` (stereo not drawn), the RP-LC retention time was determined as 828 s.

Regarding `O=C(Cc1ccc(F)cc1)NCCCn1cccc1`, the RP-LC retention time is 746 s.

The molecule `COc1ccc(OC)c(NC(=O)Cn2cccc(-c3nc(-c4ccc(Cl)cc4)no3)c2=O)c1` had an RP-LC retention time of 1000 s.

With `CCCN(C(=O)C1CCCN(c2ncnc3c2nc2n3CCCCC2)C1)c1ccccc1C` (stereo not drawn), the RP-LC retention time stood at 1000 s.

For `CN1CC(=O)NC(c2ccccc2Cl)C1=O` (stereo not drawn), the RP-LC retention time is 541 s.

Regarding `COC(=O)c1ccc(C(=O)Nc2nnc(-c3ccc(Br)o3)o2)cc1`, the RP-LC retention time is 745 s.

In turn, `Fc1ccccc1-c1nn2c(CSc3ccccc3)nnc2s1` registered an RP-LC retention time of 981 s.

`CNC(=O)[C@@H]1CN(C(=O)c2cnc(C)cn2)C[C@H]1c1n[nH]c(C)n1` registered an RP-LC retention time of 549 s.

Take `CSc1cccc(NC(=O)N2CCC(N3CCN(Cc4cccc(F)c4)C(=O)C3=O)CC2)c1`: the RP-LC retention time was found to be 779 s.

Take `COCC1CN(S(=O)(=O)Cc2cccc(F)c2)CC12CCNCC2` (stereo not drawn): the RP-LC retention time came to 623 s.

`Cc1cc2nc(C(=O)NC(C)C)c(=O)n(C)c2cc1C` registered an RP-LC retention time of 747 s.

As to `COc1ccc(NC(=O)C2CCCN(S(=O)(=O)c3c[nH]c(C(=O)N4CCCC4)c3)C2)cc1` (stereo not drawn), the RP-LC retention time came to 732 s.

Turning to `Cc1ccc(CNC(=O)NC2CCN(c3nc4cccnc4n(C)c3=O)CC2)cc1`, the RP-LC retention time turned out to be 860 s.

Take `CC1CCN(CCNC(=O)c2nnc(-c3ccc(S(=O)(=O)N(C)C)cc3)o2)CC1`: the RP-LC retention time was 606 s.

`COc1cc(OC)cc(-c2noc(Cn3nc(-c4ccc(C)cc4)ccc3=O)n2)c1` showed an RP-LC retention time of 1090 s.

`CCOC(=O)CSc1nnc(NC(=O)C2CC(=O)N(c3ccc(F)cc3)C2)s1` (stereo not drawn) showed an RP-LC retention time of 712 s.

Consider `CCCCCn1c(=O)c2ccccc2n(Cc2nc(-c3ccccc3OCC)no2)c1=O`, for which the RP-LC retention time is 1250 s.

As for `Cc1c(C(=O)N2CCSCC2)cnn1-c1cc(-c2nc(C3CC3)no2)ccn1`, the RP-LC retention time came to 949 s.

Molecule `CCC(C(=O)Nc1ccc2c(c1)OCO2)n1cnc2nc3c(cc2c1=O)CCCC3` (stereo not drawn) returned an RP-LC retention time of 773 s.

For the molecule `O=C(Nc1cccc(Br)c1)C1CCCN(c2ncc(-c3ccc(F)cc3)cn2)C1` (stereo not drawn), the RP-LC retention time came out at 1250 s.

In turn, `CN(C)CCCc1cc(C(=O)Nc2ccc(-c3ccncc3)cc2)ccc1O` had an RP-LC retention time of 580 s.

As for `Cc1c(F)cccc1NS(=O)(=O)c1cc(-c2nc(C(C)(C)C)cs2)cs1`, the RP-LC retention time was 1310 s.
